Source: patent US6472227B1, “Barbiturate assay, tracers, immunogens, antibodies and kit” (Abbott Laboratories, priority 1986, dated 2002)

Columns and labels:
[1] = Tracer stability: polarization after storage in buffer or boric acid (Table 1); type: physicochemical; parameters: Polarization (Buffer): unit not given beside the values
Source text: It was unexpectedly discovered that the presence of a carbon-carbon double bond between the fluorescein moiety and the barbiturate ring portions of the novel tracers of the present invention advantageously orients the tracer for optimal interaction with the antibody.

[2] = system: antibodies raised against an immunogen having the structure shown in FIG. 28; assay: Fluorescence polarization immunoassay cross-reactivity in drug-free normal human urine, tracer of FIG. 5; type: binding, sheep; conditions: for amount of the test compound found in the resulting human urine: 200 ng/mL added to drug-free urine, secobarbital standard
Experimental: (§1) The antibodies of the present invention are prepared by eliciting a response in sheep to the immunogens described supra. The immunogen is administered to animals or to in vitro cultures of immunocompetent cells by a series of innoculations, in a manner well known to those skilled in the art.
(§2) The tracer formulation presently preferred is 150 nanomolar tracer in: 0.1 molar phosphate buffer at pH 6.2; 5% sodium 5-sulfosalicylate; 0.1% sodium azide; and 0.01% bovine gamma-globulin. The antiserum formulation comprises sheep serum diluted with: 0.1 molar tris buffer at pH 7.5; 0.1% sodium azide; 0.1% bovine gamma-globulin; and 2% ethylene glycol (volume/volume). The dilution buffer comprises: 0.1 molar sodium phosphate at pH 7.5; 0.1% sodium azide; and 0.01% bovine gamma-globulin. The pretreatment solution comprises: 0.01% bovine gamma-globulin; 0.1 molar tris buffer at pH 7.5; 0.1% sodium azide; and 10 mg/mL riboflavin binding protein.
(§3) A minimum of fifty microliters of urine is required. The calibrators, controls, or unknown samples are pipetted directly into the sample well of the TDx® or ADx® sample cartridge. […] The assay procedure from this point is fully automated.
(§4) If a manual assay is being performed, then the sample is mixed with the pretreatment solution in dilution buffer and a background reading is taken. The tracer and antibody are then mixed into the test solution. After incubation, a fluorescence polarization reading is taken.
(§5) The net fluorescence polarization value of each calibrator, control or sample is determined and is printed on the output tape of an instrument such as the Abbott TDx® Analyzer. […] The concentration of each control or sample is read off the stored calibration curve and printed on the output tape.
Cross-reactivity was tested by the method of the present invention for the commonly-used barbiturates. […]
The five columns indicate the following information:
In other words, when 200 ng of secobarbital were added to drug-free normal human urine, approximately 200 ng of secobarbital were detected in the resulting urine sample. Thus, the closer the factor is to 1.0, the more accurate the assay is with respect to the particular test compound analyzed.
The percent cross-reactivity value presented in column five was obtained by the following mathematical formula: [formula]
(§6) The five columns in Tables 4(a) and 4(b) indicate the same information as is described above for Table 3(a).

[3] = system: antibodies raised against an immunogen having the structure shown in FIG. 29; assay: Fluorescence polarization immunoassay cross-reactivity in drug-free normal human urine, tracer of FIG. 30; type: binding, sheep; conditions: for amount of the test compound found in the resulting human urine: 200 ng/mL added to drug-free urine, secobarbital standard; for % CR / Conc. Found: tracer FIG. 30
Experimental: as §1, §2, §3, §4, §5
Cross-reactivity was tested by the method of the present invention for the commonly-used barbiturates. In each case, compounds were assayed on the Abbott Laboratories+ TDx® Clinical Analyzer or the ADx® Drugs of Abuse System after adding a known quantity (200 ng/mL) of the barbiturate test compound to drug-free normal human urine.
as §6

[4] = system: antibodies raised against an immunogen having the structure shown in FIG. 29; assay: Fluorescence polarization immunoassay cross-reactivity, tracer of FIG. 31; type: binding, sheep; conditions: tracer FIG. 31
Experimental: as §1

CCCC(C)C1(CC(=O)NCc2c(O)ccc3c2Oc2cc(O)ccc2C32OC(=O)c3ccccc32)C(=O)NC(=O)NC1=O (centres unmarked)
Polarization (Boric Acid) ([1]; 2-8 °C, Day 0): 269.39 | Polarization (Buffer) ([1]; 2-8 °C, Day 0): 247.79 | Polarization (Boric Acid) ([1]; 2-8 °C, Day 1): 271.12 | Polarization (Buffer) ([1]; 2-8 °C, Day 1): 238.09 | Polarization (Boric Acid) ([1]; 2-8 °C, Day 7): 228.62 | Polarization (Buffer) ([1]; 2-8 °C, Day 7): 168.21 | Polarization (Boric Acid) ([1]; 45 °C, Day 1): 62.68 | Polarization (Buffer) ([1]; 45 °C, Day 1): 48.70 | Polarization (Boric Acid) ([1]; 45 °C, Day 7): > 68.68 | Polarization (Buffer) ([1]; 45 °C, Day 7): > 48.70

CCC1(c2ccccc2)C(=O)NC(=O)NC1=O [Phenobarbital]
factor which overestimates or underestimates the compound assayed for ([2]; 200 ng/mL added): 1.05 | percent cross reactivity ([2]; 200 ng/mL added): 105% | amount of the test compound found in the resulting human urine [2]: 210 ng/mL | factor which overestimates or underestimates the compound assayed for ([3]; 200 ng/mL added): 0.70 | percent cross reactivity ([3]; 200 ng/mL added): 70% | amount of the test compound found in the resulting human urine [3]: 140 ng/mL | % CR ([3]; Conc. Added 1200 ng/mL): 62% | Conc. Found ([3]; Conc. Added 1200 ng/mL): 740 ng/mL | % CR ([4]; Conc. Added 1200 ng/mL): 107% | Conc. Found ([4]; Conc. Added 1200 ng/mL): 1280 ng/mL

O=C1NC(=O)C(c2ccccc2)(c2ccccc2)N1 [Phenytoin]
amount of the test compound found ([2]; 1 μg/mL added): ND (None detected: Concentration less than the sensitivity of the assay (60 ng/mL)) | amount of the test compound found ([2]; 10 μg/mL added): 320 ng/mL | factor ([2]; 10 μg/mL added): 0.032 | percent cross reactivity ([2]; 10 μg/mL added): 3.20% | amount of the test compound found ([2]; 100 μg/mL added): 1020 ng/mL | factor ([2]; 100 μg/mL added): 0.0102 | percent cross reactivity ([2]; 100 μg/mL added): 1.02% | % CR ([3]; Conc. Added 100 (ng/mL)): 0.04% | Conc. Found ([3]; Conc. Added 100 (ng/mL)): 40 ng/mL | % CR ([4]; Conc. Added 100 (ng/mL)): 0.09% | Conc. Found ([4]; Conc. Added 100 (ng/mL)): 90 ng/mL

C=CCC1(C(C)CC)C(=O)NC(=O)NC1=O (centres unmarked) [Talbutal]
factor which overestimates or underestimates the compound assayed for ([2]; 200 ng/mL added): 0.90 | percent cross reactivity ([2]; 200 ng/mL added): 90% | amount of the test compound found in the resulting human urine [2]: 180 ng/mL | factor which overestimates or underestimates the compound assayed for ([3]; 200 ng/mL added): 2.65 | percent cross reactivity ([3]; 200 ng/mL added): 265% | amount of the test compound found in the resulting human urine [3]: 531 ng/mL | % CR ([3]; Conc. Added 1200 ng/mL): >167% | % CR ([4]; Conc. Added 1200 ng/mL): >167%

CCCC(C)C1(C/C=C/C(=O)NCc2c(O)ccc3c2Oc2cc(O)ccc2C32OC(=O)c3ccccc32)C(=O)NC(=O)NC1=O (centres unmarked) [drawing 9]
Polarization (Buffer) ([1]; 2-8 °C, Day 0): 239.63 | Polarization (Buffer) ([1]; 2-8 °C, Day 1): 235.18 | Polarization (Buffer) ([1]; 2-8 °C, Day 7): 235.08 | Polarization (Buffer) ([1]; 45 °C, Day 1): 237.93 | Polarization (Buffer) ([1]; 45 °C, Day 7): 239.72

O=C1NC(=O)C(c2ccccc2)(c2ccc(O)cc2)N1 (centres unmarked) [p-Hydroxy phenytoin]
amount of the test compound found ([2]; 1 μg/mL added): ND (None detected: Concentration less than the sensitivity of the assay (60 ng/mL)) | amount of the test compound found ([2]; 10 μg/mL added): 340 ng/mL | factor ([2]; 10 μg/mL added): 0.034 | percent cross reactivity ([2]; 10 μg/mL added): 3.40% | amount of the test compound found ([2]; 100 μg/mL added): 1200 ng/mL | factor ([2]; 100 μg/mL added): 0.012 | percent cross reactivity ([2]; 100 μg/mL added): 1.20% | amount of the test compound found ([3]; 10 μg/mL added): ND (None detected: Concentration less than the sensitivity of the assay (60 ng/mL)) | amount of the test compound found ([3]; 100 μg/mL added): 101 ng/mL | factor ([3]; 100 μg/mL added): 0.00010 | percent cross reactivity ([3]; 100 μg/mL added): 0.10% | amount of the test compound found ([3]; 500 μg/mL added): 218 ng/mL | factor ([3]; 500 μg/mL added): 0.00004 | percent cross reactivity ([3]; 500 μg/mL added): 0.04% | % CR ([3]; Conc. Added 500 (ng/mL)): 0.001% | Conc. Found ([3]; Conc. Added 500 (ng/mL)): 200 ng/mL | % CR ([4]; Conc. Added 500 (ng/mL)): 0.058% | Conc. Found ([4]; Conc. Added 500 (ng/mL)): 290 ng/mL

Primidone
amount of the test compound found ([2]; 1 μg/mL added): ND (None detected: Concentration less than the sensitivity of the assay (60 ng/mL)) | amount of the test compound found ([2]; 10 μg/mL added): 90 ng/mL | factor ([2]; 10 μg/mL added): 0.009 | percent cross reactivity ([2]; 10 μg/mL added): 0.90% | amount of the test compound found ([2]; 100 μg/mL added): 320 ng/mL | factor ([2]; 100 μg/mL added): 0.0032 | percent cross reactivity ([2]; 100 μg/mL added): 0.32% | amount of the test compound found ([3]; 10 μg/mL added): ND (None detected: Concentration less than the sensitivity of the assay (60 ng/mL)) | amount of the test compound found ([3]; 100 μg/mL added): 195 ng/mL | factor ([3]; 100 μg/mL added): 0.00019 | percent cross reactivity ([3]; 100 μg/mL added): 0.19% | % CR ([3]; Conc. Added 100 (ng/mL)): 0.18% | Conc. Found ([3]; Conc. Added 100 (ng/mL)): 180 ng/mL | % CR ([4]; Conc. Added 100 (ng/mL)): 0.24% | Conc. Found ([4]; Conc. Added 100 (ng/mL)): 240 ng/mL
